Each compound was assayed against EGFP-HIF-1α fusion protein (Homo sapiens (Human), UniProt Q16665) (assay: Stabilization of HIF-1α in EGFP-HIF-1α-CHOhIR cell model (nuclear EGFP fluorescence imaging)). Conditions: CHOhIR cells stably expressing EGFP-HIF-1α; 3 h incubation; 0.03-30 μM; bipyridine 100 μM = 100% activation; read-out: Effects in stabilization of HIF-1α activity (EC50).
Format: cell-based
Protocol: CHOhIR cells (purchased from Thermo Fisher Scientific) which stably expressed EGFP-HIF-1α fusion protein were cultured under 37° C. and 5% CO2 in F12 culture solution containing 0.5 mg/ml G418 and 10% FBS, transplanted in an amount of 0.8×10^4 cells/100 μl/well on a 96-well culture plate that could be subjected to fluorescence detection, and cultured under 37° C. and 5% CO2 for 18-24 h. […] After the cells were incubated under 37° C. and 5% CO2 for 3 h, 12% formaldehyde in amount of 100 μl/well was added, fixation was carried out at room temperature for 30 min. Culture media was discarded, and the plate was washed with PBS twice, PBS containing 1 μM Hoechst was used, staining was performed at room temperature for 1 h. Detection was performed by IN Cell Analyzer 1000 live cell imaging system. Detection conditions were: 20× objective lens, excitation wavelength Ex=460 nm, emission wavelength […] to detect blue-fluorescence of cell nucleus passage; excitation wavelength Ex=475 nm, emission wavelength Em=535 nm, exposure 500 ms to detect green-fluorescence EGFP of cytoplasm passage, and pictures were taken continuously in 5 fields of view for each well. IN Cell Analyzer 1000 Multitarget Analysis Module of GE Company was used for analyzing aggregation of green-fluorescence of HIF-1α in cell nucleus, and BP100 μM treatment group was used as 100% activation of HIF-1α.

Row | EC50 | SMILES
1 | 2290 ± 270 nM | COc1cccc(/C=N/NC(=O)CN(C)CCN(C)Cc2cccc3ccccc23)c1O [Example 1, (E)-N′-(3-methoxy-2-hydroxybenzal)-2-{N-{2-[N-(naphthalen-1-yl-methylene)-N-methylamino]ethyl}N-methylamino}acethydrazide]
2 | 17800 ± 4810 nM | CN(CCN(C)Cc1cccc2ccccc12)CC(=O)N/N=C/c1cc(C(C)(C)C)cc(C(C)(C)C)c1O [Example 2, (E)-N′-(3,5-di-tert-butyl-2-hydroxybenzal)-2-{N-{2-[N-(naphthalen-1-yl-methylene)-N-methylamino]ethyl}N-methylamino}acethydrazide]
3 | 2110 ± 850 nM | CCOc1cccc(/C=N/NC(=O)CN(C)CCN(C)Cc2cccc3ccccc23)c1O [Example 3, (E)-N′-(3-ethoxy-2-hydroxybenzal)-2-{N-{2-[N-(naphthalen-1-yl-methylene)-N-methylamino]ethyl}N-methylamino}acethydrazide]
4 | 830 ± 180 nM | CN(CCN(C)Cc1cccc2ccccc12)CC(=O)N/N=C/c1c(O)ccc2ccccc12 [Example 4, (E)-N′-[(2-hydroxynaphthalen-1-yl)methylene]-2-{N-{2-[N-(naphthalen-1-yl-methylene)-N-methylamino]ethyl}N-methylamino}acethydrazide]
5 | 780 ± 140 nM | CCN(CC)c1ccc(/C=N/NC(=O)CN(C)CCN(C)Cc2cccc3ccccc23)c(O)c1 [Example 5, (E)-N′-(4-N,N-diethylamino-2-hydroxybenzal)-2-{N-{2-[N-(naphthalen-1-yl-methylene)-N-methylamino]ethyl}N-methylamino}acethydrazide]
6 | 5230 ± 1390 nM | CN(CCN(C)Cc1cccc(C(F)(F)F)c1)CC(=O)N/N=C/c1cc(C(C)(C)C)cc(C(C)(C)C)c1O [Example 8, (E)-N′-(3,5-di-tert-butyl-2-hydroxybenzal)-2-{N-{2-[N-(3-trifluoromethylbenzyl)-N-methylamino]ethyl}N-methylamino}acethydrazide]
7 | 600 ± 180 nM | CCN(CC)c1ccc(/C=N/NC(=O)CN(C)CCN(C)Cc2cccc(C(F)(F)F)c2)c(O)c1 [Example 10, (E)-N′-(4-N,N-diethylamino-2-hydroxybenzal)-2-{N-{2-[N-(3-trifluoromethylbenzyl)-N-methylamino]ethyl}N-methylamino}acethydrazide]
8 | 170 ± 40 nM | CN(CCN(C)Cc1cccc(C(F)(F)F)c1)CC(=O)N/N=C/c1cccc(O)c1O [Example 11, (E)-N′-(2,3-dihydroxybenzal)-2-{N-{2-[N-(3-trifluoromethylbenzyl)-N-methylamino]ethyl}N-methylamino}acethydrazide]
9 | 800 ± 190 nM | CCOc1cccc(/C=N/NC(=O)CN(C)CCN(C)Cc2ccc(C(C)C)cc2)c1O [Example 13, (E)-N′-[(3-ethoxy-2-hydroxybenzal)methylene]-2-{N-{2-[N-(4-isopropylbenzyl)-N-methylamino]ethyl}N-methylamino}acethydrazide]
10 | 1020 ± 340 nM | CC(C)c1ccc(CN(C)CCN(C)CC(=O)N/N=C/c2c(O)ccc3ccccc23)cc1 [Example 14, (E)-N′-[(2-hydroxynaphthalen-1-yl)methylene]-2-{N-{2-[N-(4-isopropylbenzyl)-N-methylamino]ethyl}N-methylamino}acethydrazide]
11 | 11200 ± 2870 nM | CC(C)c1ccc(CN(C)CCN(C)CC(=O)N/N=C/c2cc(C(C)(C)C)cc(C(C)(C)C)c2O)cc1 [Example 15, (E)-N′-(3,5-di-tert-butyl-2-hydroxybenzal)-2-{N-{2-[N-(4-isopropylbenzyl)-N-methylamino]ethyl}N-methylamino}acethydrazide]
12 | 560 ± 150 nM | CC(C)c1ccc(CN(C)CCN(C)CC(=O)N/N=C/c2cccc(O)c2O)cc1 [Example 17, (E)-N′-(2,3-dihydroxybenzal)-2-{N-{2-[N-(4-isopropylbenzyl)-N-methylamino]ethyl}N-methylamino}acethydrazide]
13 | 2280 ± 670 nM | CC(C)c1ccc(CN(C)CCN(C)CC(=O)N/N=C/c2cc(Br)ccc2O)cc1 [Example 18, (E)-N′-(3-bromo-6-hydroxybenzal)-2-{N-{2-[N-(4-isopropylbenzyl)-N-methylamino]ethyl}N-methylamino}acethydrazide]
14 | 2770 ± 310 nM | COc1cccc(CN(C)CCN(C)CC(=O)N/N=C/c2cc(C(C)(C)C)cc(C(C)(C)C)c2O)c1 [Example 22, (E)-N′-(3,5-di-tert-butyl-2-hydroxybenzal)-2-{N-{2-[N-(3-methoxybenzyl)-N-methylamino]ethyl}N-methylamino}acethydrazide]
15 | 760 ± 150 nM | CCN(CC)c1ccc(/C=N/NC(=O)CN(C)CCN(C)Cc2cccc(OC)c2)c(O)c1 [Example 23, (E)-N′-(4-N,N-diethylamino-2-hydroxybenzal)-2-{N-{2-[N-(3-methoxybenzyl)-N-methylamino]ethyl}N-methylamino}acethydrazide]
16 | 820 ± 90 nM | COc1cccc(CN(C)CCN(C)CC(=O)N/N=C/c2cccc(O)c2O)c1 [Example 24, (E)-N′-(2,3-dihydroxybenzal)-2-{N-{2-[N-(3-methoxybenzyl)-N-methylamino]ethyl}N-methylamino}acethydrazide]
17 | 7190 ± 1270 nM | COc1cccc(CN(C)CCN(C)CC(=O)N/N=C/c2cc(Br)ccc2O)c1 [Example 25, (E)-N′-(3-bromo-6-hydroxybenzal)-2-{N-{2-[N-(3-methoxybenzyl)-N-methylamino]ethyl}N-methylamino}acethydrazide]
18 | 980 ± 100 nM | CN(CCN(C)Cc1ccc(C#N)cc1)CC(=O)N/N=C/c1c(O)ccc2ccccc12 [Example 26, (E)-N′-[(2-hydroxynaphthalen-1-yl)methylene]-2-{N-{2-[N-(4-cyanobenzyl)-N-methylamino]ethyl}N-methylamino}acethydrazide]
19 | 7750 ± 1330 nM | CN(CCN(C)Cc1ccc(C#N)cc1)CC(=O)N/N=C/c1cc(C(C)(C)C)cc(C(C)(C)C)c1O [Example 27, (E)-N′-(3,5-di-tert-butyl-2-hydroxybenzal)-2-{N-{2-[N-(4-cyanobenzyl)-N-methylamino]ethyl}N-methylamino}acethydrazide]
20 | 8420 ± 3150 nM | COc1cccc(/C=N/NC(=O)CN(C)CCN(C)Cc2ccc(C#N)cc2)c1O [Example 28, (E)-N′-(3-methoxy-2-hydroxybenzal)-2-{N-{2-[N-(4-cyanobenzyl)-N-methylamino]ethyl}N-methylamino}acethydrazide]
21 | 2770 ± 390 nM | CCOc1cccc(/C=N/NC(=O)CN(C)CCN(C)Cc2ccc(C#N)cc2)c1O [Example 29, (E)-N′-(3-ethoxy-2-hydroxybenzal)-2-{N-{2-[N-(4-cyanobenzyl)-N-methylamino]ethyl}N-methylamino}acethydrazide]
22 | 530 ± 20 nM | CCN(CC)c1ccc(/C=N/NC(=O)CN(C)CCN(C)Cc2ccc(C#N)cc2)c(O)c1 [Example 30, (E)-N′-(4-N,N-diethylamino-2-hydroxybenzal)-2-{N-{2-[N-(4-cyanobenzyl)-N-methylamino]ethyl}N-methylamino}acethydrazide]
23 | 2760 ± 780 nM | COc1cccc(/C=N/NC(=O)CN(C)CCN(C)Cc2ccc(C(C)(C)C)cc2)c1O [Example 31, (E)-N′-(3-methoxy-2-hydroxybenzal)-2-{N-{2-[N-(4-tert-butylbenzyl)-N-methylamino]ethyl}N-methylamino}acethydrazide]
24 | 1860 ± 570 nM | CCOc1cccc(/C=N/NC(=O)CN(C)CCN(C)Cc2ccc(C(C)(C)C)cc2)c1O [Example 32, (E)-N′-(3-ethoxy-2-hydroxybenzal)-2-{N-{2-[N-(4-tert-butylbenzyl)-N-methylamino]ethyl}N-methylamino}acethydrazide]
25 | 130 ± 20 nM | CCN(CC)c1ccc(/C=N/NC(=O)CN(C)CCCN(C)Cc2ccc(C(C)(C)C)cc2)c(O)c1 [Example 33, (E)-N′-(4-N,N-diethylamino-2-hydroxybenzal)-2-{N-{3-[N-(4-tert-butylbenzyl)-N-methylamino]propyl}N-methylamino}acethydrazide]
